Assay results as given in patent US6765011B2, “7-heterocyclyl quinoline and thieno[2,3-b]pyridine derivatives useful as antagonists of gonadotropin releasing hormone” (Ortho-McNeil Pharmaceutical, Inc., priority 2000, dated 2004).
Where a name gives a salt, the structure may show the parent alone.

Experiments:
[1] = target: T1, membrane-bound GnRH receptor (Rattus norvegicus, UniProt P30969); assay: GnRH Receptor Binding Assay ([125I]-histrelin competition, rat pituitary homogenate); conditions: [125I]-histrelin displacement, female and male rat pituitary homogenate; values without parentheses = IC50; read-out: Binding, IC50 (B % @ 30 μM)
T1 construct: from tissue; host or cells: rat pituitary homogenate (female and male, equal mixture)
T1 sequence (P30969 1-327): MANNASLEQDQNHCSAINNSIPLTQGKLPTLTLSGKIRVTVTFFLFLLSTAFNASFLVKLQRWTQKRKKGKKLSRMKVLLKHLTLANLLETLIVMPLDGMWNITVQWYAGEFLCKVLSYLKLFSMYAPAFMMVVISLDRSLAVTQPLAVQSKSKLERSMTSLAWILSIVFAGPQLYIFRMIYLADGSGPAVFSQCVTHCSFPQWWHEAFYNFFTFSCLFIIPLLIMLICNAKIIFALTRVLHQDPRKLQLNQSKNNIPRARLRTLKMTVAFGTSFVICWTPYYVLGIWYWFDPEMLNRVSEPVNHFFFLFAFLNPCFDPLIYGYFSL
Text: GnRH Receptor Binding Assay
A homogenate prepared from an equal mixture of female and male rat pituitaries was used as the source of the membrane-bound GnRH receptor. The receptor was allowed to interact in solution with [^125I]-histrelin alone or in combination with a competitive ligand (the compound being tested). The bound radiolabeled ligand was separated from the free (unbound) radiolabeled ligand by filtration through glass filter mats using a 96-well plate harvesting system (Tomtec Mach II 96). In the absence of a competitive ligand, a maximum amount of radiolabeled ligand is bound to the receptor and trapped by the glass filter mats. […] The amount of receptor-bound [^125I]-histrelin on the filter mat was determined using a Wallac Betaplate™ Liquid Scintillation Counter. Binding was determined as follows:
B0 maximum concentration of compound
Average NSB: (NSB1+NSB2)/2
Corrected B0: Average B0−Average NSB
% inhibition of Corrected B0 (or maximum response) was calculated as follows:
% Inhibition=100−[((Actual counts per minute−Average NSB)/Corrected B0)*100]

[2] = target: T2, GnRHR (Hek 293 cells with the GnRHR gene) (Homo sapiens, UniProt P30968); assay: LUCIFERASE Assay for GnRH (hCG promoter luciferase reporter); format: cell-based; conditions: antagonist format, against 0.6 nM Histrelin
T2 construct: expressed in transfected cells; host or cells: HEK 293 cells carrying the GnRHR gene, transfected with an hCG promoter-luciferase reporter
T2 sequence (P30968 1-328): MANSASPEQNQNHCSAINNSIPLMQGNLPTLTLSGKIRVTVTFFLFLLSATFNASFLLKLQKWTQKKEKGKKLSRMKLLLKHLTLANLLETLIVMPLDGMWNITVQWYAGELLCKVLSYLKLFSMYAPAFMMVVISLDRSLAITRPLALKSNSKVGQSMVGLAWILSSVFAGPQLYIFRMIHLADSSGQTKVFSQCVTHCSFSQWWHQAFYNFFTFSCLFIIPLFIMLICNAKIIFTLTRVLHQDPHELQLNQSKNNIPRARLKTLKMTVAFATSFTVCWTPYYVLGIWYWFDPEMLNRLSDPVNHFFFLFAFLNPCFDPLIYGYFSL
Experimental: LUCIFERASE Assay for GnRH
Hek 293 cells with the GnRHR gene were transfected with the hCG promoter and the luciferase reporter system. On day 1, the cells were plated at a density of 80,000 cells per well on a Poly-D-lysine pre-coated 96 well plate. The plates were incubated at 37° C. for 24 hours. On day 2, the spent media was decanted and replaced with fresh media. Test compounds, standard and controls were added to individual wells. All the dilutions were done in 7.5% DMSO/(αMEM media. The assay was run in both agonist and antagonist format. For the antagonist format, the assay measurements were run against a standard of 0.6 nM Histrelin. On day 3, the levels of luciferase production were measured in a chemiluminescence assay using Enhanced Luciferase Assay Kit. The results were expressed as % Inhibition using the following formula: […]
RLU Relative Light Units, a measure of chemiluminescence
Agonist [RLU value(test compound)−(Background/0.6 nM Histrelin)−Background]*100
Antagonist (1−[(RLU value−(Background/0.6 nM Histrelin)−Background)*100])
The calculated percentages were plotted on a graph using Graph Pad Prizm and the IC50/EC50 values determined.

[3] = tested on: rat anterior pituitary cells; assay: Primary Pituitary Cell Culture Assay (luteinizing hormone in media after 1 nM GnRH); format: cell-based; conditions: inhibition of luteinizing hormone release, male rat primary pituitary cells
Experimental: Primary Pituitary Cell Culture Assay
Male rats (between immature and adult) were sacrificed and the anterior pituitaries were collected from them. The pituitaries were dissociated and the cells were plated at a concentration of 0.33×10^6 cells/well on day 1. On day 3 the media on the cells was flushed and replaced with fresh media. The test compound was then added to the plated cells at a concentration ranging from 1 nM to 1000 nM. The plates were incubated at 37° C. at 5% CO2 for 2 days. On Day 5 the media was flushed again and replaced with fresh media. To the plates were then added test compound and 1 nM GnRH. The cells were incubated for 4 hours, the media was collected by centrifuging the plates at 1200 rpm Sorvall RT7 for 10 minutes, 900 μL of supernatant was pipetted from each well and dispensed to a 96 well plate. The deep well plates were covered and stored at […] for a day. The plates are then evaluated by ELISA ([…]) to determine the concentration of lutenizing hormone in the media. The assay was repeated at varying concentrations of the test compounds to determine IC50 values. The IC50 value is defined as the concentration of test compound at which 50% inhibition was achieved.

SMILES | IC50 [1] | IC50 [2] | IC50 [3]
CCOC(=O)c1cn(Cc2c(F)cccc2F)c2cc(-c3ccsc3)c(CN(C)Cc3ccccc3)cc2c1=O [Compound 1, 6-(N-Benzyl-N-methylaminomethyl)-7-(thien-3-yl)-1-(2,6-difluorobenzyl)-1,4-dihydro-4-oxoquinoline-3-carboxylic Acid Ethyl Ester] | 32 µM | 10 µM | 
CCOc1nnc2c3cc(CN(C)Cc4ccccc4)c(-c4cc5ccccc5o4)cc3n(Cc3c(F)cccc3F)cc1-2 [Compound 6, 7-(Benzofuran-2-yl)-3-ethoxy-5-[(2,6-difluorophenyl)methyl]-8-[[methyl(phenylmethyl)amino]methyl]-5H-pyrazolo[4,3-c]quinoline HCl] | 5 µM |  | 
CN(Cc1ccccc1)Cc1cc2c3n[nH]c(=O)c-3cn(Cc3c(F)cccc3F)c2cc1-c1cc2ccccc2o1 [Compound 4, 2,5-Dihydro-7-(benzofuran-2-yl)-8-[[methyl(phenylmethyl)amino]methyl]-5-[(2,6-difluorophenyl)methyl]-3H-pyrazolo[4,3-c]quinolin-3-one] | 1 µM |  | 
CN(Cc1ccccc1)Cc1cc2c3n[nH]c(=O)c-3cn(Cc3c(F)cccc3F)c2cc1Br [Compound 3, 2,5-Dihydro-7-bromo-8-[[methyl(phenylmethyl)amino]methyl]-5-[(2,6-difluorophenyl)methyl]-3H-pyrazolo[4,3-c]quinolin-3-one] | 16 µM |  | 
CN(Cc1ccccc1)Cc1cc2c3nnc(OCc4ccccc4)c-3cn(Cc3c(F)cccc3F)c2cc1-c1cc2ccccc2o1 [Compound 5, 7-(Benzofuran-2-yl)-3-[(phenylmethyl)oxy]-5-[(2,6-difluorophenyl)methyl]-8-[[methyl(phenylmethyl)amino]methyl]-5H-pyrazolo[4,3-c]quinoline] | 5 µM |  | 
COc1ccc(-c2sc3c(c4n[nH]c(=O)c-4cn3Cc3ccccc3OC)c2CN(C)Cc2ccccc2)cc1 [Compound 8, 2,5-Dihydro-7-(4-methoxyphenyl)-5-[(2-methoxyphenyl)methyl]-8-[[methyl(phenylmethyl)amino]methyl]-3H-pyrazolo[3,4-d]thieno[2,3-b]pyridin-3-one] | 30 µM |  | 
COc1ccc(-c2sc3c(c2CN(C)Cc2ccccc2)c(=O)c(C(=O)NN)cn3Cc2ccccc2OC)cc1 [Compound 7, 4,7-Dihydro-2-(4-methoxyphenyl)-7-[(2-methoxyphenyl)methyl]-3-[[methyl(phenylmethyl)amino]methyl]-4-oxo-thieno[2,3-b]pyridine-5-carboxylic Acid, Hydrazide bis-Hydrochloride] | 1.6 µM |  | 1.48 µM
CCOC(=O)c1cn(Cc2c(F)cccc2F)c2cc(-c3cc4ccccc4o3)c(CN(C)Cc3ccccc3)cc2c1=O [Compound 2, 6-(N-Benzyl-N-methylaminomethyl)-7-(benzofuran-2-yl)-1-(2,6-difluorobenzyl)-1,4-dihydro-4-oxoquinoline-3-carboxylic Acid Ethylester] |  | 3.26 µM | 2.43 µM
